Converted amounts (≈) assume the structure as drawn.
Test system: M. tuberculosis (PA-resistant)
Test: microbe, parasite or virus in culture
Format: cell-based, Mycobacterium tuberculosis
Settings: for MIC: Mycobacterium tuberculosis

Structure (SMILES) | MIC against PA-824 resistant strain of Mycobacterium tuberculosis H37Rv [micg/mL] | MIC [µg/mL] | activity against PA-824 resistant strain (in words)
CC(=O)NC[C@H]1CN(c2ccc(-c3cnc(O[C@@H]4COc5nc([N+](=O)[O-])cn5C4)nc3)c(F)c2)C(=O)O1 [Example 8, (S,S)—N-(3-{3-Fluoro-4-[2-(2-nitro-6,7-dihydro-5H-imidazo[2,1-b][1,3]oxazin-6-yloxy)-pyrimidin-5-yl]-phenyl}-2-oxo-oxazolidin-5-ylmethyl)-acetamide] | 0.5 | 0.5 (≈ 0.974 µM) | –
CC(=O)NC[C@H]1CN(c2ccc(N3CCOCC3)c(F)c2)C(=O)O1 [Linezolid, linezolid, reference compound] | – | 0.5 (≈ 1.48 µM) | –
O=[N+]([O-])c1cn2c(n1)OC[C@@H](OCc1ccc(OC(F)(F)F)cc1)C2 [PA-824, reference compound] | – | > 32 | loses its activity
CC(=O)NC[C@H]1CN(c2ccc(-c3ccc(CO[C@@H]4COc5nc([N+](=O)[O-])cn5C4)cc3)c(F)c2)C(=O)O1 [Example 31, (S,S)—N-{3-[2-Fluoro-4′-(2-nitro-6,7-dihydro-5H-imidazo[2,1-b][1,3]oxazin-6-yloxymethyl)-biphenyl-4-yl]-2-oxo-oxazolidin-5-ylmethyl}-acetamide] | 1 | 1 (≈ 1.9 µM) | –

From patent US7666864B2, “Bicyclic nitroimidazole-substituted phenyl oxazolidinones” (priority 2008, dated 2010)
